Values after ≈ are worked out from the molar mass of the structure shown.
How the values were obtained:
Staphyloccus aureus = assay: Minimal Inhibitory Concentration (MIC) test; type: cell-based; settings: Gram positive
[1] = system: E. coli expressing neomycin phosphotransferase-1 (NPT); assay: Poly(U)-directed polyphenylalanine synthesis, with or without neomycin phosphotransferase-1; type: cell-based; settings: for antibiotic activity against E. coli expressing NPT: E. coli transformed with resistance plasmid expressing neomycin phosphotransferase-1
Procedure: Assay for Polyuridylic Acid [Poly(U)]-Directed-Polyphenylalanine Synthesis.
The reaction mixture contained 400 ug of E. coli B transfer RNA (General Biochemicals, Chagrin Falls, Ohio) per mL, 5 mM spermidine, and [^14C]leucine was replaced with 13 μM [^14C]phenylalanine ([…]). A poly(UUU) RNA template [5′-[…](UUU)12UAAGCAGG-3′ (SEQ ID NO: 1) was used at a concentration of 100 ug per assay. (Legault-Demare and Chambliss, Journal of Bacteriology, 1974, 120(3): 1300-1307).
The assay for polyuridylic acid [poly(U)]-directed-polyphenylalanine synthesis was conducted in the presence or absence of neomycin phosphotransferase-1 (NPT). Wild type E. coli and E. coli transformed with a resistance plasmid expressing neomycin phosphotransferase-1 (NPT) were treated with Mangrolide A and translational error frequency determined.

[2] = system: Gram-negative bacterial pathogens (Burkholderia cenocepacia J2315, Burkholderia cenocepacia, Pseudomonas aeruginosa PAO1, Acinetobacter baumannii BAA-1793 and …); assay: Minimal Inhibitory Concentration (MIC) test; type: cell-based
Procedure: Minimal Inhibitory Concentration (MIC) Test
The MIC test was performed by adding 2.0 mL of an antibiotic solution (100 ug/mL) to the first tube (out of, e.g., 9 tubes). 1.0 mL of sterile broth was added to all other tubes. 1.0 mL was transferred from the first tube to the second tube. Using a separate pipette, the contents of this tube were mixed and 1.0 mL was transferred to the third tube. Dilutions were continued in this manner through tube number 8. 1.0 mL was removed from tube 8 and discarded. […] Colonies of the culture were suspended to an appropriate turbidity to be tested in 5.0 mL of Mueller-Hinton broth to give a slightly turbid suspension. This suspension was diluted by aseptically pipetting 0.2 mL of the suspension into 40 mL of Mueller-Hinton broth. 1.0 mL of the diluted culture suspension was added to each of the tubes. The final concentration of the antibiotic was one-half of the original concentration in each tube. All tubes were incubated at 35° C. overnight. […]
Antibiotic activity, measured as MIC in μg/mL, of natural Mangrolide A and a synthetic Mangrolide A O-methyl ether derivative were compared against the following Gram-negative microbial pathogens: Burkholderia cenocepacia J2315, Burkholderia cenocepacia, Pseudomonas aeruginosa PAO1, Acinetobacter Baumannii BAA-1793, Acinetobacter baumannii BAA-1605, Escherichia coli (EHEC), and Klebsiella pneumoniae.

[3] = system: S-30 extract from E. coli (30S ribosomal extract); assay: Error frequency in vitro protein synthesis assay (amino acid misincorporation); type: biochemical; settings: increasing concentrations (μM) of Mangrolide A, 14C-phenylalanine / 3H-leucine incorporation
Procedure: Error Frequency In Vitro Protein Synthesis Assay Using Natural mRNA
72 mM Tris-hydrochloride pH 7.5, 72 mM NH4Cl, 12 mM magnesium acetate, 2.4 mM dithiothreitol (Sigma Co.), 2 mM adenosine triphosphate (ATP), 0.1 mM guanosine triphosphate (GTP), 5 mM phosphoenolpyruvate (Sigma Co.), 20 ug of pyruvate kinase (Sigma Co.) per mL, a mixture of 19 amino acids (each at 72 uM), 13 uM [^14C]leucine (50 counts/min per picomole), 50 ug of calcium folinate (S.P.E.C.I.A., Paris, France) per mL, 0.2 mM DFP, and 0.6 mM Mg Titriplex in a final volume of 0.125 mL per tube. mRNA (1300 μg), an S-30 extract from E. coli (200 μg), or ribosomes plus S-150 (200 μg) and crude initiation factors were added. Incubations were for 30 minutes at 37° C. The extent of amino acid incorporation was determined by measuring the radioactivity remaining insoluble after treatment with hot trichloroacetic acid (90° C. for 15 min). To reduce endogenous mRNA, ribosomes plus 5-150 or S-30 extracts were preincubated just prior to use at 37° C. for 15 min in the reaction mixture described above without [^14C]leucine, the energy generating system and added mRNA.
Assay for Polyuridylic Acid [Poly(U)]-Directed-Polyphenylalanine Synthesis. […]

[4] = system: 30S rRNA ribosomal mutant, A1408G; assay: Error frequency assay with 30S rRNA ribosomal mutant; type: biochemical; settings: increasing concentrations of Mangrolide A
Procedure: (§1) The error frequency assay was conducted to determine whether a 30S rRNA ribosomal mutant, A1408G is susceptible to Mangrolide A. The mutation site is shown in FIG. 8A. […] (FIG. 8B) When wild type or A1408G (S30) mutant bacteria were grown in wells of a microwell plate containing no additions (No—negative control), Ampicillin or Tetracyclin in the presence or absence of Mangrolide A, A1408G (S30) mutants proliferated similarly to the proliferation of wild type bacteria grown in the absence of Mangrolide A. (FIG. 8C).

[5] = system: A1408G (S30) mutant bacteria; assay: Growth of wild type or A1408G (S30) mutant bacteria in the presence of Mangrolide A; type: cell-based; settings: grown with or without Mangrolide A, compared with wild type
Procedure: as §1

Bacillus subtillis = assay: Minimal Inhibitory Concentration (MIC) test; type: cell-based; settings: Gram positive

## CC[C@H]1/C=C(\C)[C@@H](O)C/C=C/C=C(\CO)C(=O)O[C@H](C(C)C)C/C=C(C)/C=C(\C)[C@@H]1O[C@@H]1O[C@H](C)[C@@H](O[C@@H]2O[C@H](C)[C@@H](OC)[C@H](O)[C@H]2OC)[C@H](N(C)C)[C@H]1O [Mangrolide A, mangrolide A]
Staphyloccus aureus
  MIC: 32 µg/mL (≈ 41 µM)
[1]
  antibiotic activity against E. coli expressing NPT: inactivated by the expressed neomycin phosphotransferase-1 activity
[1]; listed as mangrolide
  antibiotic activity against E. coli expressing NPT: inactivated by neomycin phosphotransferase-1
[1]; grown in the presence of Mangrolide A
  translational error frequency in E. coli expressing NPT: error frequency comparable to wild type E. coli
[2]; all Gram-negative bacteria tested
  antibiotic potency compared with the Mangrolide A O-methyl ether derivative: more potent antibiotic against all Gram-negative bacteria tested
[2]; range over the Gram-negative bacterial pathogens tested
  MIC range: 0.25 to 1 µg/mL
[3]
  misincorporation of amino acids during protein synthesis: increased misincorporation of amino acids
[3]; listed as mangrolide
  misincorporation of amino acids during protein synthesis: induces misincorporation of amino acids
[4]
  misincorporation of amino acids with A1408G mutant: limited misincorporation was induced
[5]
  susceptibility of A1408G mutant bacteria (growth): A1408G mutant is resistant
[5]; listed as mangrolide
  susceptibility of A1408G mutant bacteria (growth): A1408G mutant strain was able to grow on plates with mangrolide, unlike the wildtype
Bacillus subtillis
  MIC: > 32 µg/mL

Reference: patent US20150329582A1, “SMALL MOLECULE COMPOUNDS SELECTIVE AGAINST GRAM-NEGATIVE BACTERIAL INFECTIONS” (priority 2014, published 2015)
